Laboratory results: US20250222050A1, “Chlorella and Corn Leaf Extract Compositions, Their Production, and Methods of Use” (Unigen, Inc., priority 2024, published 2025)

Columns and labels:
Format in all cases: in vivo
BALB/C mice [1] = test: 60-minute direct effect (direct sleep) test, no pentobarbital
Method: Purpose bred BALB/C mice (n=405; male, 20 g-22 g) were purchased from Beijing Hua Fukang biological technologies Inc (Beijing, China). The study was carried out at Testing Center for the functions of Health Foods, College of Arts and science of Beijing Union University (Beijing, China). Mice were kept in specific pathogen free, temperature-controlled room and fed with rodent diet purchased from Beijing Hua Fukang biological technologies Inc (Beijing, China). Three consecutive studies were carried out. Mice were randomly assigned into 9 groups for each experiment. Fifteen mice were allocated in each group. The first experiment was set to determine the sleep incidence effect of test materials. The second experiment was designed to detect the total sleep time under the hypnotic subthreshold dose of pentobarbital sodium (Lot #: 34E10320, Beijing Dingguo Changsheng Biotechnology Co. Ltd). The third experiment was set to detect sleep latency induced by barbital sodium (Lot #: 527B051, Merck).
Zea mays (corn) leaf extract standardized at not less than 0.2% 6-MBOA (Lot #: FP210105-01) and Chlorella Powder (Lot #: 222A) were suspended with sterile water. Melatonin purchased from By-Health Co. Ltd. (Beijing, China) was used as a reference compound in each study. All mice were orally administrated with test materials in a volume of 20 mL/kg BW/day. Study lasted for 31 days. […]

BALB/C mice [2] = test: Sleep time (duration) after pentobarbital sodium; conditions: oral 1 mg/kg, 46 mg/kg pentobarbital sodium i.p. 15 min after last dose
Method: Purpose bred BALB/C mice (n=405; male, 20 g-22 g) were purchased from Beijing Hua Fukang biological technologies Inc (Beijing, China). […] Mice were kept in specific pathogen free, temperature-controlled room and fed with rodent diet purchased from Beijing Hua Fukang biological technologies Inc (Beijing, China). Three consecutive studies were carried out. Mice were randomly assigned into 9 groups for each experiment. Fifteen mice were allocated in each group.
The amount of time spent sleeping was determined by injecting mice with 46 mg/kg pentobarbital sodium, intraperitoneally, 15 minutes after administration of the last dose of the test materials. The sleep time of each mouse was recorded and the difference of sleep time between tested materials and vehicle control were analyzed.

BALB/C mice [3] = test: Sleep incidence under hypnotic subthreshold dose of pentobarbital; conditions: mice n=15, oral 1 mg/kg; 32 mg/kg pentobarbital i.p. 15 min after last dose
Method: The numbers of mice that lost turnover to the right side over 1 min following injection of pentobarbital were recorded. The incidence of sleeping mice was analyzed to compare the difference between the tested substance groups and vehicle control. All the experiments were conducted at night.

BALB/C mice [4] = test: Sleep latency induced by barbital sodium
Method: Purpose bred BALB/C mice (n=405; male, 20 g-22 g) were purchased from Beijing Hua Fukang biological technologies Inc (Beijing, China). The study was carried out at Testing Center for the functions of Health Foods, College of Arts and science of Beijing Union University (Beijing, China). Mice were kept in specific pathogen free, temperature-controlled room and fed with rodent diet purchased from Beijing Hua Fukang biological technologies Inc (Beijing, China). Three consecutive studies were carried out. Mice were randomly assigned into 9 groups for each experiment. Fifteen mice were allocated in each group. […] The third experiment was set to detect sleep latency induced by barbital sodium (Lot #: 527B051, Merck).
Mice were intraperitoneally injected with 240 mg/kg barbital sodium (0.2 mL/20 g body weight), 15 min after the last test material administration. Sleep latency was recorded and the difference in sleep time between the tested substance groups and vehicle control were determined. […]

Which Numbers of sleeping (BALB/C mice [1]; mice n=15, oral 1 mg/kg, 1 h after administration) does the source give for `COc1ccc2[nH]cc(CCNC(C)=O)c2c1` [Melatonin] here?
The Numbers of sleeping was 0.

What about the “Sleep Time” value (BALB/C mice [1]; mice, oral 1 mg/kg) of the same compound?
The value was 0 min.

And the “Sleep Time (sleep duration)” value (BALB/C mice [2])?
Its value is 59.7 ± 13.0 min.

What about the “Incidence (sleep incidence)” value (BALB/C mice [3]) of the same compound?
Its value is 60%.

What about the “sleep latency versus vehicle control (in words)” value (BALB/C mice [4]; melatonin 1 mg/kg, chlorella 5,000 mg/kg, combination 250 + 5,000 mg/kg) of the same compound?
Its value is “significantly shortened”.

What about the “Latent Time (sleep onset latency)” value (BALB/C mice [4]; mice, oral 1 mg/kg, 240 mg/kg barbital sodium i.p. 15 min after last dose) of the same compound?
Its value is 37.8 ± 12.8 min.
